Test results taken from US12630536B2, “Cyanotriazine derivative, preparation method therefor, and application thereof” (Chengdu Fanxi Biopharma Co., LTD., priority 2020, dated 2026).

System: golden hamsters fed with high-fat feedstuffs (hyperlipidemia model)
Test: In-vivo pharmacodynamic test, high-fat feed hyperlipidemia model
Details: oral once per day, 4 weeks
Method: Administration mode: oral administration was carried out once per day with a time interval of 24 hours for 4 consecutive weeks. During the experiment, the animals were weighed twice per week, and a remaining amount and an adding amount of the feedstuffs were recorded before each blood sampling detection for calculating a food intake of each group of animals during administration.
The food utilization rate represents a weight gain in gram of an animal taking per 100 g of feedstuffs, so that food utilization rate=weight gain (g)/food intake (100 g)×100%.

Cn1cnc2ccc(Oc3c(Br)cc(-n4nc(C#N)c(=O)[nH]c4=O)cc3Br)cc21 [Compound 1, 2-(3,5-dibromo-4-((1-methyl-1H-benzo[d]imidazol-6-yl)oxy)phenyl)-3,5-dioxo-2,3,4,5-tetra hydro-1,2,4-triazine-6-carbonitrile]
food utilization rate (weight gain (g)/food intake (100 g)×100%): reduced significantly
level of triglyceride in blood (TG) (5 and 15 mg/kg, compared with the model group): significantly reduces
